# Measurements as given in patent US7084161B2, “Method for treating inflammatory diseases or conditions” (SmithKlineBeecham Corporation, priority 2000, dated 2006).
# Test system: LPS-induced INOS activity in J774 cells
# Experiment: LPS-induced iNOS activity in J774 cells (DAF-2 fluorescence)
# Type: cell-based, mouse
# Details: pre-treatment 6 hours prior to and 24 hours subsequent to LPS (typically 1 ug/ml), at sub-nanomolar—nanomolar concentrations
# Protocol: In this assay system, lipopolysaccharide (LPS) was used to induce the expression of INOS in the mouse macrophage cell line, J774. […] This reduction in INOS activity correlated with a reduction in LPS-induced INOS mRNA expression.
# Specifically, LPS-induced INOS activity was measured using the following assay conditions. J774 cells were seeded at a density of […] per well, in a black, clear-bottomed, 96 well plate, 24 hours prior to use. The cell culture and the drug dilutions were carried out in complete media, which consisted of DMEM (Dulbecco's modification of Eagle's medium) containing foetal calf serum (10%), glutamine (2 mM), penicillin (100 u/ml) and streptomycin (100 μg/ml). The J774 cells were pre-treated with the PPAR delta activators A and B, or vehicle, for 6 hours prior to, and for 24 hours subsequent to the addition of LPS (typically, a concentration of 1 ug/ml of LPS was used). Twenty-four hours after the addition of LPS, INOS activity was measured by the following method. […] After incubation at 37° C. for 3 hours, fluorescence from each well was measured at an excitation wavelength of 485 nm, and an emission wavelength of 530 nm. The ability of LPS to induce INOS activity, in the presence and absence of PPAR delta activators, was then calculated. […]
row,Structure (SMILES),inhibition of LPS-induced INOS activity
1,"Cc1cc(SCc2sc(-c3ccc(C(F)(F)F)cc3)nc2C)ccc1OCC(=O)O [Compound A, 2-{2-methyl-4-[({4-methyl-2-[4-(trifluoromethyl)phenyl]-1,3-thiazol-5-yl}methyl)sulfanyl]phenoxy}acetic Acid]",marked inhibition
2,"Cc1cc(SCc2sc(-c3ccc(C(F)(F)F)c(F)c3)nc2C)ccc1OCC(=O)O [Compound B, 2-{2-methyl-4-[({4-methyl-2-[3-fluoro-4-(trifluoromethyl)phenyl]-1,3-thiazol-5-yl}methyl)sulfanyl]phenoxy}acetic Acid]",marked inhibition
